The results in this text go back to US20230406843A1, “Progranulin Modulators and Methods of Using the Same” (ARKUDA THERAPEUTICS, priority 2020, published 2023).

The first assay relates to progranulin. The experiment in a line: Progranulin induction cellular assay (ELISA of secreted mouse PGRN). The class given is cell-based. The following applies: Mus musculus, BV-2, read-out: EC50 μM. The method, boiled down:
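Mouse primary microglia, primary cortical neurons and BV-2 cells are used. BV-2 cells are plated in 96-well format the day before, with a 1 h attachment and 16 h incubation. Progranulin secreted into the medium is quantified by ELISA.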
The term EC50 denotes the concentration giving half of the maximal effect. On to `COC[C@@]1(N)CC[C@@H](C(=O)N2CCc3ccccc3[C@@H]2c2ccc(F)cc2)OC1` [Compound 5217, ((2S,5S)-5-amino-5-(methoxymethyl)tetrahydro-2H-pyran-2-yl)((S)-1-(4-fluorophenyl)-3,4-dihydroisoquinolin-2(1H)-yl)methanone], for which the EC50 was determined as 0.226 µM.

For `COC[C@]1(N)CC[C@@H](C(=O)N2CCc3ccccc3[C@@H]2c2ccc(F)cc2)OC1` [Compound 5218, ((2S,5R)-5-amino-5-(methoxymethyl)tetrahydro-2H-pyran-2-yl)((S)-1-(4-fluorophenyl)-3,4-dihydroisoquinolin-2(1H)-yl)methanone], the EC50 worked out at 0.12 µM.

Turning to `COC[C@]1(N)CC[C@H](C(=O)N2CCc3ccccc3[C@@H]2c2ccc(F)cc2)OC1` [Compound 5219, ((2R,5R)-5-amino-5-(methoxymethyl)tetrahydro-2H-pyran-2-yl)((S)-1-(4-fluorophenyl)-3,4-dihydroisoquinolin-2(1H)-yl)methanone], the EC50 worked out at 0.006 µM.

As to `COC[C@@]1(N)CC[C@H](C(=O)N2CCc3ccccc3[C@@H]2c2ccc(F)cc2)OC1` [Compound 5220, ((2R,5S)-5-amino-5-(methoxymethyl)tetrahydro-2H-pyran-2-yl)((S)-1-(4-fluorophenyl)-3,4-dihydroisoquinolin-2(1H)-yl)methanone], the EC50 is 0.081 µM.

The same assay, now with this note: progranulin induction assay; mouse pMG, primary cortical neurons and BV-2 cell lines named, cell type not given; ELISA-based readout; read-out: EC50.
In the case of `CN(C)[C@@H]1CO[C@@H](C(=O)N2CCc3ccccc3[C@@H]2c2ccc(F)cc2)C[C@@H]1O` [Compound 5085, ((2R,4S,5R)-5-(dimethylamino)-4-hydroxytetrahydro-2H-pyran-2-yl)((S)-1-(4-fluorophenyl)-3,4-dihydroisoquinolin-2(1H)-yl)methanone], the EC50 was 0.316 µM.

Take `N[C@H]1CO[C@H](C(=O)N2CCc3ccccc3[C@@H]2c2ccc(F)cc2)C[C@H]1F` [Compound 5086, ((2S,4R,5S)-5-amino-4-fluorotetrahydro-2H-pyran-2-yl)((S)-1-(4-fluorophenyl)-3,4-dihydroisoquinolin-2(1H)-yl)methanone]: the EC50 came to 0.194 µM.

For `N[C@H]1C[C@H](C(=O)N2CCc3ccccc3[C@@H]2c2ccc(F)cc2)OC[C@H]1F` [Compound 5087, ((2R,4S,5S)-4-amino-5-fluorotetrahydro-2H-pyran-2-yl)((S)-1-(4-fluorophenyl)-3,4-dihydroisoquinolin-2(1H)-yl)methanone], the EC50 was found to be 0.0421 µM.

As to `CCO[C@H]1C[C@H](C(=O)N2CCc3ccccc3[C@@H]2c2ccc(F)cc2)OC[C@H]1N` [Compound 5088, ((2R,4S,5R)-5-amino-4-ethoxytetrahydro-2H-pyran-2-yl)((S)-1-(4-fluorophenyl)-3,4-dihydroisoquinolin-2(1H)-yl)methanone], the EC50 amounted to 0.074 µM.

Take `N[C@@H]1CO[C@@H](C(=O)N2CCc3ccccc3[C@@H]2c2ccc(F)cc2)C[C@@H]1OC(F)F` [Compound 5089, ((2R,4S,5R)-5-amino-4-(difluoromethoxy)tetrahydro-2H-pyran-2-yl)((S)-1-(4-fluorophenyl)-3,4-dihydroisoquinolin-2(1H)-yl)methanone]: the concentration for a half-maximal effect (EC50) amounted to 0.062 µM.

For `N[C@@H]1C[C@H](C(=O)N2CCc3ccccc3[C@@H]2c2ccc(F)cc2)OC[C@H]1O` [Compound 5092, ((2R,4R,5S)-4-amino-5-hydroxytetrahydro-2H-pyran-2-yl)((S)-1-(4-fluorophenyl)-3,4-dihydroisoquinolin-2(1H)-yl)methanone], the EC50 stood at 0.184 µM.

With `N[C@@H]1CC[C@H](C(=O)N2CCc3ccccc3[C@@H]2c2ccc(F)cc2F)OC1` [Compound 5207], the EC50 was found to be 0.182 µM.

As to `N[C@H]1CO[C@@H](C(=O)N2CCc3ccccc3[C@@H]2c2ccc(F)cc2)C[C@@H]1F` [Compound 5210, ((2R,4S,5S)-5-amino-4-fluorotetrahydro-2H-pyran-2-yl)((S)-1-(4-fluorophenyl)-3,4-dihydroisoquinolin-2(1H)-yl)methanone], the EC50 worked out at 0.596 µM.

On to `O=C([C@H]1CC[C@@H](NCCO)CO1)N1CCc2ccccc2[C@@H]1c1ccc(F)cc1` [Compound 5211, ((S)-1-(4-fluorophenyl)-3,4-dihydroisoquinolin-2(1H)-yl)((2R,5R)-5-((2-hydroxyethyl)amino)tetrahydro-2H-pyran-2-yl)methanone], for which the EC50 came out at 0.209 µM.

Consider `COCCN[C@@H]1CC[C@H](C(=O)N2CCc3ccccc3[C@@H]2c2ccc(F)cc2)OC1` [Compound 5212, ((S)-1-(4-fluorophenyl)-3,4-dihydroisoquinolin-2(1H)-yl)((2R,5R)-5-((2-methoxyethyl)amino)tetrahydro-2H-pyran-2-yl)methanone], for which the concentration for a half-maximal effect (EC50) was determined as 0.314 µM.

Consider `N[C@]1(CO)CC[C@@H](C(=O)N2CCc3ccccc3[C@@H]2c2ccc(F)cc2)OC1` [Compound 5213, ((2S,5S)-5-amino-5-(hydroxymethyl)tetrahydro-2H-pyran-2-yl)((S)-1-(4-fluorophenyl)-3,4-dihydroisoquinolin-2(1H)-yl)methanone], for which the concentration for a half-maximal effect (EC50) turned out to be 0.401 µM.

Turning to `N[C@@]1(CO)CC[C@@H](C(=O)N2CCc3ccccc3[C@@H]2c2ccc(F)cc2)OC1` [Compound 5214, ((2S,5R)-5-amino-5-(hydroxymethyl)tetrahydro-2H-pyran-2-yl)((S)-1-(4-fluorophenyl)-3,4-dihydroisoquinolin-2(1H)-yl)methanone], the EC50 worked out at 0.08 µM.

`N[C@@]1(CO)CC[C@H](C(=O)N2CCc3ccccc3[C@@H]2c2ccc(F)cc2)OC1` [Compound 5215, ((2R,5R)-5-amino-5-(hydroxymethyl)tetrahydro-2H-pyran-2-yl)((S)-1-(4-fluorophenyl)-3,4-dihydroisoquinolin-2(1H)-yl)methanone]: the EC50 was 0.14 µM.

`N[C@]1(CO)CC[C@H](C(=O)N2CCc3ccccc3[C@@H]2c2ccc(F)cc2)OC1` [Compound 5216, ((2R,5S)-5-amino-5-(hydroxymethyl)tetrahydro-2H-pyran-2-yl)((S)-1-(4-fluorophenyl)-3,4-dihydroisoquinolin-2(1H)-yl)methanone]: the half-maximal effective concentration (EC50) is 0.295 µM.

On to `C[C@]1(C(=O)N2CCc3ccccc3[C@@H]2c2ccc(F)cc2)CCNCCO1` [Compound 5239], for which the EC50 came out at 0.316 µM.

Turning to `C[C@@]1(C(=O)N2CCc3ccccc3[C@@H]2c2ccc(F)cc2)CCNCCO1` [Compound 5240], the EC50 is 0.631 µM.

On to `O=C([C@@H]1OCCNC[C@@H]1O)N1CCc2ccccc2[C@@H]1c1ccc(F)cc1` [Compound 5243, ((S)-1-(4-fluorophenyl)-3,4-dihydroisoquinolin-2(1H)-yl)((6S,7R)-6-hydroxy-1,4-oxazepan-7-yl)methanone], for which the EC50 is 0.2 µM.

Take `O=C([C@H]1OCCNC[C@@H]1O)N1CCc2ccccc2[C@@H]1c1ccc(F)cc1` [Compound 5244]: the EC50 stood at 0.091 µM.

`O=C([C@@H]1OCCNC[C@H]1O)N1CCc2ccccc2[C@@H]1c1ccc(F)cc1` [Compound 5245]: the EC50 is 0.35 µM.

In the case of `CO[C@@H]1CO[C@@H](C(=O)N2CCc3ccccc3[C@@H]2c2ccc(F)cc2)C[C@H]1N` [Compound 5247, ((2R,4R,5S)-4-amino-5-methoxytetrahydro-2H-pyran-2-yl)((S)-1-(4-fluorophenyl)-3,4-dihydroisoquinolin-2(1H)-yl)methanone], the EC50 came out at 0.095 µM.
